Measured values reported in the NIST ThermoML archive (doi:10.1016/j.tca.2018.05.009).
Several values for one entry are separate records, joined by “and”; a condition that tells them apart may be missing. Identical values can stand only once.

Settings: Liquid, Transpiration method

CC(=O)C(=O)O [2-oxopropanoic acid]
Settings	vapor or sublimation pressure
308.2 K	0.2899 kPa
313.3 K	0.3753 kPa and 0.3771 kPa
315.9 K	0.434 kPa
316.8 K	0.45 kPa
318.3 K	0.509 kPa
320.9 K	0.599 kPa and 0.597 kPa
325.8 K	0.798 kPa
330.8 K	1.092 kPa
333.2 K	1.274 kPa
336.4 K	1.519 kPa

COC(=O)C(C)=O [methyl 2-oxopropanoate]
Settings	vapor or sublimation pressure
279.4 K	0.177 kPa and 0.1749 kPa
280.9 K	0.1942 kPa
282.4 K	0.2279 kPa
283.8 K	0.2536 kPa
286.2 K	0.2982 kPa and 0.293 kPa
287 K	0.3042 kPa
289.2 K	0.3569 kPa
291 K	0.426 kPa
294.9 K	0.527 kPa
298.9 K	0.706 kPa
302.9 K	0.919 kPa
307.8 K	1.227 kPa
